Measured values reported in paper PMC7044277 (Nature Communications, 2020).
Values joined by “and” are separate entries in the source; they are usually repeats but may differ in a detail not shown here. Equal entries are not always repeated.

Legend:
Format in all cases: cell-based
320 non-olfactory GPCRs [1] = target: 320 non-olfactory GPCRs (Homo sapiens, UniProt P41143); conditions: receptor OPRD1; replicate values, Fig_4g
320 non-olfactory GPCRs [2] = target: T1, 320 non-olfactory GPCRs (Homo sapiens, UniProt Q01718); conditions: receptor MC2R; replicate values, Fig_4g
T1 construct: expressed in transfected cells; host or cells: HTLA cells
T1 sequence (Q01718 whole entry): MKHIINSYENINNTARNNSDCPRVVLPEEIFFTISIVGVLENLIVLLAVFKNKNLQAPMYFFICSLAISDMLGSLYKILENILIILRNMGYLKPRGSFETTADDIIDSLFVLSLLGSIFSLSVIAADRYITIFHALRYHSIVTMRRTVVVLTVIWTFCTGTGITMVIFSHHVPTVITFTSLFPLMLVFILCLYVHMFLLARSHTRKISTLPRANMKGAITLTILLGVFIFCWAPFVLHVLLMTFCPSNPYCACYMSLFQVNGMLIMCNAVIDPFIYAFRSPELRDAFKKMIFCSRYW

320 non-olfactory GPCRs [3] = target: T2, 320 non-olfactory GPCRs (Homo sapiens, UniProt P13945)
T2 construct: expressed in transfected cells; host or cells: HTLA cells
T2 sequence (P13945 whole entry): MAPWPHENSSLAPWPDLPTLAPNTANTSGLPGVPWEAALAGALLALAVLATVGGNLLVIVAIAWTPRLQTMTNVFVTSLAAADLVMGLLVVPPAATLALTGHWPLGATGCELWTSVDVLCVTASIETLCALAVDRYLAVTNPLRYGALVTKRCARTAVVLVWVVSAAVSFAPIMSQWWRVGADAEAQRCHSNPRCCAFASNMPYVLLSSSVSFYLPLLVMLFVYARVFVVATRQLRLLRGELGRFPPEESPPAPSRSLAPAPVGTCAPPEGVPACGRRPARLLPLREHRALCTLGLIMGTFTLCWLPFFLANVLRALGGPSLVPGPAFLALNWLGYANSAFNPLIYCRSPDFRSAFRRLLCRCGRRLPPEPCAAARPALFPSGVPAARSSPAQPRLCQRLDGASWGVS

320 non-olfactory GPCRs [4] = target: T3, 320 non-olfactory GPCRs (Homo sapiens, UniProt Q86VZ1); conditions: receptor P2RY8; replicate values, Fig_4g
T3 construct: expressed in transfected cells; host or cells: HTLA cells
T3 sequence (Q86VZ1 whole entry): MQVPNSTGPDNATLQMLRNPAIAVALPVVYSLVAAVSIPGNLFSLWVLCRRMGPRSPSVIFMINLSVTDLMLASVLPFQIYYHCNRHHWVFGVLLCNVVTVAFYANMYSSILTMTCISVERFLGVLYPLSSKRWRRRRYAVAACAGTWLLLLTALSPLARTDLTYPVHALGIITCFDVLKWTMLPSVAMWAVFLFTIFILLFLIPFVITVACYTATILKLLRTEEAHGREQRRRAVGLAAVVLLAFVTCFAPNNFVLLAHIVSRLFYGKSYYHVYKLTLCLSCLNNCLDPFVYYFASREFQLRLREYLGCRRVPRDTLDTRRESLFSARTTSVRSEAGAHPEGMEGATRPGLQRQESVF
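Wherever Fold of Basal is given: compound tested at 1 µM final concentration.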
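Wherever GPCRome agonism screen response is given: fold over basal response of each receptor without drug.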

320 non-olfactory GPCRs (Homo sapiens, UniProt P41143), sequence (P41143 whole entry): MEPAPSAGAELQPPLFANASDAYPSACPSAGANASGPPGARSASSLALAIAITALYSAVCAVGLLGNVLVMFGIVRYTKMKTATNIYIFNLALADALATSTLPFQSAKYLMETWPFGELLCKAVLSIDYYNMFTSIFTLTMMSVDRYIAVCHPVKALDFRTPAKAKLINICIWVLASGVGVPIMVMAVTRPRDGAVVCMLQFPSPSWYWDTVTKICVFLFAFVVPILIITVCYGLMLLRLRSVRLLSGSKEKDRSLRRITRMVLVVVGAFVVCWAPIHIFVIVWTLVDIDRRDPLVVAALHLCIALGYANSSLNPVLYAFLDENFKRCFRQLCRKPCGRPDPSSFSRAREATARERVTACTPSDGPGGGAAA

CCOc1cccc2cc(C(C)NCC3(O)CCCCC3)oc12 (stereo not shown) [O4LE6]
GPCRome agonism screen response (320 non-olfactory GPCRs [1]): 1.015 and 0.7396 and 0.6746 and 0.921 | GPCRome agonism screen response (320 non-olfactory GPCRs [2]): 1.011 and 1.168 and 0.7811 and 1.192 | Fold of Basal (320 non-olfactory GPCRs [3]): 1.471 and 1.539 and 1.208 and 0.8362 | GPCRome agonism screen response (320 non-olfactory GPCRs [4]): 0.862 and 0.8339 and 1.83 and 1.383
